Laboratory results published in patent US7592160B2, “Processes for producing isomaltose and isomaltitol and use thereof” (Kabushiki Kaisha Hayashibara Seibutsu Kagaku Kenkyujo, priority 2001, dated 2009).

Tests used:
[1] = tested on: α-isomaltosylglucosaccharide-forming enzyme; assay: Influence of metal ions on α-isomaltosylglucosaccharide-forming enzyme activity (N75 strain); format: biochemical, Bacillus globisporus N75 strain; conditions: for Relative activity (%): in the presence of 1 mM of each metal-ion, None = 100; for effect on the enzyme activity, in words: 1 mM, Table 13
Experimental: (§1) About 20 L of a fresh preparation of the same liquid culture medium as used in the above seed culture were placed in a 30-L fermentor, sterilized by heating, and then cooled to 27° C. and inoculated with 1% (v/v) of the seed culture, followed by culturing at 27° C. and pH 6.0 to 8.0 for 48 hours under aeration-agitation conditions. […] These activities were assayed as follows: The activity of α-isomaltosylglucosaccharide-forming enzyme was assayed by dissolving maltotriose in 100 mM acetate buffer (pH 6.0) to give a concentration of 2% (w/v) for a substrate solution, adding a 0.5 ml of an enzyme solution to a 0.5 ml of the substrate solution, enzymatically reacting the mixture solution at 35° C. for 60 min, suspending the enzymatic reaction by boiling the solution for 10 min, and quantifying maltose, among the isomaltosyl maltose and maltose formed mainly in the reaction mixture, on HPLC disclosed in Experiment 1. One unit activity of α-isomaltosylglucosaccharide-forming enzyme is defined as the enzyme amount that forms one micromole of maltose per minute under the above enzymatic reaction conditions. Throughout the specification, the enzymatic activity of α-isomaltosylglucosaccharide-forming enzyme means the unit(s) assayed as above.
(§2) The influence of metal ions on the activity of α-isomaltosylglucosaccharide-forming enzyme was examined in the presence of 1 mM of each metal-ion according to the assay for its enzyme activity.

[2] = tested on: α-isomaltosylglucosaccharide-forming enzyme; assay: Influence of metal ions on α-isomaltosylglucosaccharide-forming enzyme activity (C11 strain); format: biochemical, Bacillus globisporus C11 strain; conditions: for Relative activity (%): in the presence of 1 mM of each metal-ion, None = 100; for effect on the enzyme activity, in words: 1 mM, Table 7
[3] = tested on: α-isomaltosyl-transferring enzyme; assay: Influence of metal ions on α-isomaltosyl-transferring enzyme activity (C9 strain); format: biochemical, Bacillus globisporus C9 strain; conditions: for Relative activity (%): in the presence of 1 mM of each metal-ion, None = 100; for effect on the enzyme activity, in words: 1 mM, Table 4
Experimental: (§3) The activity of α-isomaltosyl-transferring enzyme was assayed by dissolving panose in 100 mM acetate buffer (pH 6.0) to give a concentration of 2% (w/v) for a substrate solution, adding a 0.5 ml of an enzyme solution to 0.5 ml of the substrate solution, enzymatically reacting the mixture solution at 35° C. for 30 min, suspending the enzymatic reaction by boiling the solution for 10 min, and quantifying glucose, among the cyclotetrasaccharide and glucose formed mainly in the reaction mixture, by the glucose oxidase method. One unit activity of α-isomaltosyl-transferring enzyme is defined as the enzyme amount that forms one micromole of glucose per minute under the above enzymatic reaction conditions. Throughout the specification, the enzymatic activity of α-isomaltosyl-transferring enzyme means the unit(s) assayed as above.
(§4) The influence of metal ions on the activity of α-isomaltosyl-transferring enzyme was examined in the presence of 1 mM of each metal-ion according to the assay for its enzyme activity.

[4] = tested on: α-isomaltosyl-transferring enzyme; assay: Influence of metal ions on α-isomaltosyl-transferring enzyme activity (C11 strain); format: biochemical, Bacillus globisporus C11 strain; conditions: for Relative activity (%): in the presence of 1 mM of each metal-ion, None = 100; for effect on the enzyme activity, in words: 1 mM, text on Table 8
Experimental: as §3, §4

[5] = tested on: α-isomaltosylglucosaccharide-forming enzyme; assay: Influence of metal ions on α-isomaltosylglucosaccharide-forming enzyme activity (A19 strain); format: biochemical, Arthrobacter globiformis A19 strain; conditions: for Relative activity (%): in the presence of 1 mM of each metal-ion, None = 100; for effect on the enzyme activity, in words: 1 mM, Table 19
[6] = tested on: α-isomaltosyl-transferring enzyme; assay: Influence of metal ions on α-isomaltosyl-transferring enzyme activity (N75 strain); format: biochemical, Bacillus globisporus N75 strain; conditions: for Relative activity (%): in the presence of 1 mM of each metal-ion, None = 100; for effect on the enzyme activity, in words: 1 mM, Table 14
Experimental: as §3
The influence of temperature and pH on the activity of α-isomaltosyl-transferring enzyme was examined in accordance with the assay for its enzyme activity. […] The thermal stability of the enzyme was determined by incubating the testing enzyme solutions in the form of 20 mM acetate buffer (pH 6.0) at prescribed temperatures for 60 min, cooling the resulting enzyme solutions with water, and assaying the remaining enzyme activity of each solution. The pH stability of the enzyme was determined by keeping the testing enzyme solutions in the from of 50 mM buffers having prescribed pHs at 4° C. for 24 hours, adjusting the pH of each solution to 6.0, and assaying the remaining enzyme activity of each solution. […] The influence of metal ions on the activity of α-isomaltosyl-transferring enzyme was examined in the presence of 1 mM of each metal-ion according to the assay for its enzyme activity.

[7] = tested on: α-isomaltosyl-transferring enzyme; assay: Influence of metal ions on α-isomaltosyl-transferring enzyme activity (S1 strain); format: biochemical, Arthrobacter ramosus S1 strain; conditions: for Relative activity (%): in the presence of 1 mM of each metal-ion, None = 100; for effect on the enzyme activity, in words: 1 mM, Table 21
Experimental: as §3, §4

[8] = tested on: α-isomaltosylglucosaccharide-forming enzyme; assay: Influence of metal ions on α-isomaltosylglucosaccharide-forming enzyme activity (C9 strain); format: biochemical, Bacillus globisporus C9 strain; conditions: for Relative activity (%): in the presence of 1 mM of each metal-ion, None = 100; for effect on the enzyme activity, in words: 1 mM, Table 3
Experimental: as §1, §2

SMILES	Relative activity (%) [1] [%]	Relative activity (%) [2] [%]	Relative activity (%) [3] [%]	Relative activity (%) [4] [%]	Relative activity (%) [5] [%]	Relative activity (%) [6] [%]	Relative activity (%) [7] [%]	Relative activity (%) [8] [%]	effect on the enzyme activity, in words [1]	effect on the enzyme activity, in words [2]	effect on the enzyme activity, in words [3]	effect on the enzyme activity, in words [4]	effect on the enzyme activity, in words [5]	effect on the enzyme activity, in words [6]	effect on the enzyme activity, in words [7]	effect on the enzyme activity, in words [8]	Relative activity (%) ([4]; listed as Fe^3+)	Relative activity (%) ([5]; listed as Fe^3+)	Relative activity (%) ([6]; listed as Fe^3+)	Relative activity (%) ([7]; listed as Fe^3+)
[Pb+2] [Pb^2+]	86	101	89	74	43	69	85	103	–	–	–	–	–	–	–	–	–	–	–	–
[Cu+2] [Cu^2+]	7	23	57	56	0	15	2	15	strongly inhibited	strongly inhibited	also inhibited	also inhibited	strongly inhibited	also inhibited	also inhibited	strongly inhibited	–	–	–	–
[Ca+2] [Ca^2+]	108	109	101	91	106	100	103	115	activated	activated	not activated	not activated	–	not activated	neither activated	activated	–	–	–	–
[Hg+2] [Hg^2+]	1	4	1	2	0	0.5	0.1	4	strongly inhibited	strongly inhibited	strongly inhibited	strongly inhibited	strongly inhibited	strongly inhibited	strongly inhibited	strongly inhibited	–	–	–	–
[Co+2] [Co^2+]	93	96	103	89	93	92	91	100	–	–	–	–	–	–	–	–	–	–	–	–
[Ba+2] [Ba^2+]	84	65	102	90	99	102	97	65	–	also inhibited	–	–	–	–	–	also inhibited	–	–	–	–

Now from value to compound:

Relative activity (%) [1] [%]	Relative activity (%) [2] [%]	Relative activity (%) [3] [%]	Relative activity (%) [4] [%]	Relative activity (%) [5] [%]	Relative activity (%) [6] [%]	Relative activity (%) [7] [%]	Relative activity (%) [8] [%]	effect on the enzyme activity, in words [1]	effect on the enzyme activity, in words [2]	effect on the enzyme activity, in words [3]	effect on the enzyme activity, in words [4]	effect on the enzyme activity, in words [5]	effect on the enzyme activity, in words [6]	effect on the enzyme activity, in words [7]	effect on the enzyme activity, in words [8]	Relative activity (%) ([4]; listed as Fe^3+)	Relative activity (%) ([5]; listed as Fe^3+)	Relative activity (%) ([6]; listed as Fe^3+)	Relative activity (%) ([7]; listed as Fe^3+)	SMILES
85	83	101	93	102	91	101	80	–	also inhibited	–	–	–	–	–	also inhibited	–	–	–	–	[Sr+2] [Sr^2+]
82	–	–	–	36	–	–	–	–	–	–	–	–	–	–	–	88	35	90	75	[Fe+2] [Fe^2+]
35	24	104	98	2	92	91	20	strongly inhibited	strongly inhibited	not inhibited	not inhibited	strongly inhibited	not inhibited	neither activated	strongly inhibited	–	–	–	–	O=C(O)CN(CCN(CC(=O)O)CC(=O)O)CC(=O)O [EDTA, ethylenediaminetetraacetic acid]
82	91	88	83	56	75	78	92	–	–	–	–	–	–	–	–	–	–	–	–	[Zn+2] [Zn^2+]
